Measurements as given in publication PMC10587737, “Dracorhodin targeting CMPK2 attenuates inflammation: A novel approach to sepsis therapy” (Clinical and Translational Medicine, 2023).

Legend:
[1] = system: LPS-induced septic shock in C57BL/6 mice; test: LPS-induced septic shock model; format: in vivo, mouse
Protocol: Sepsis was induced by intraperitoneal injection of 8- to 12-week-old gender-matched wild-type mice with LPS (E. coli O111:B4, Sigma-Aldrich) at 20 mg per kg body weight. Mouse survival was monitored every 1 h after injection for a total of 72 h. In a separate experiment, mice were treated with the same dose of LPS, and immune sera were collected 6 h post injection. Then, the abdominal cavity was washed with PBS. The levels of IL-1β and TNF-α in serum and peritoneal lavage ﬂuid were determined by ELISA. Then, the livers, kidneys and lungs were immediately removed and washed in ice-cold PBS. They were fixed with 4% paraformaldehyde, which was used for hematoxylin-eosin (H&E), Masson staining and Sirius red staining.

[2] = system: NLRP3 inflammasome in BMDMs; test: NLRP3 inflammasome activation in LPS-primed BMDMs (ATP/Nigericin; ELISA, immunoblot); format: cell-based, mouse; conditions: DP 2.5, 5, 10 μM, supernatant
Protocol: Mouse bone marrow cells (isolated from the legs of mice) were cultured in DMEM supplemented with 20% FBS. BMDMs were generated by culturing mouse bone marrow cells in the presence of 20 ng/ml M-CSF-conditioned medium for 7 days. BMDMs were seeded in 6- or 48-well plates overnight in FBS-free DMEM. On day 2, after priming with ultrapure LPS (200 ng/ml) for 4 h, BMDMs (1 × 10^6 cells/ml) were further stimulated with ATP (4 mM) or nigericin (10 μM) for 45 min. Supernatants and cell lysates were collected for ELISA and immunoblot analyses.
The cytokines mouse IL-1β and TNF-α in supernatants from serum, cell culture, and tissue culture were assayed by ELISA kits (R&D Systems, Minneapolis, MN, USA) according to the manufacturer’s instructions.
Cells were lysed in NP-40 buffer containing a protease inhibitor cocktail (Roche, 11836153001) and a phosphatase inhibitor cocktail (Sigma-Aldrich, P5726). Protein concentrations were quantified using a BCA Protein Assay Kit (Beyotime, 5000T P0011). Equal amounts of protein were separated by SDS-PAGE and transferred onto nitrocellulose membranes. The membranes were then incubated with antibodies against CMPK2, NLRP3, ASC, pro-caspase-1, pro-IL-1β, GAPDH, caspase-1 and IL-1β, followed by incubation with the appropriate secondary HRP-conjugated antibodies and development with ECL.

BMDMs [3] = test: CCK-8 cytotoxicity assay; format: cell-based, mouse; conditions: DP 5–80 μM
Protocol: To detect the viability of cells, a cell counting kit 8 (CCK-8) assay was performed. BMDMs were seeded at 1×10^6 cells/ml in a 96-well plate and incubated overnight at 37℃. Then, we treated the cells with different concentrations of DP (0-160 μM) for 24 h, added CCK-8 reagent to the cell medium and incubated the cells for 1 h. Then, the optical density was measured at a wavelength of 450 nm.

[4] = system: ASC oligomerization in BMDMs; test: ASC oligomerization assay; format: cell-based, mouse; conditions: DP 12 h before or 1 h after LPS; ATP/Nigericin
Protocol: BMDMs were seeded at 1×10^6 cells/ml in 6-well plates. After cell adherence, BMDMs were treated with different concentrations of DP. The following day, the medium was replaced, and the cells were primed with 200 ng/ml LPS for 4 h and then stimulated with Nigericin or ATP for 45 min. BMDMs were primed with 200 ng/ml LPS for 4 h. The cells were treated with DP for 1 h and then stimulated with Nigericin or ATP for 45 min. The supernatant was removed, the cells were rinsed in ice-cold PBS, and then, the cells were lysed with NP-40 for 30 min. Lysates were centrifuged at 6000×g for 10 min at 4°C. The pellets were washed twice in 200 μl of ice-cold PBS and resuspended in 200 μl of PBS. Then, 2 mM disuccinimidyl suberate (DSS) was added to the resuspended pellets, which were incubated at room temperature for 30 min with rotation. Samples were then centrifuged at 6000×g for 10 min at 4°C. The cross-linked pellets were resuspended in 40 μl of 2× loading buffer and then boiled and analyzed by immunoblotting.

BMDMs [5] = test: Mitochondrial membrane potential (JC-1) and mtROS (MitoSOX); format: cell-based, mouse; conditions: DP 12 h, LPS priming, ATP
Protocol: The treated bone marrow‐derived macrophages (BMDMs) and JC‐1 working solution were incubated in a cell incubator for 30 min. At the end of the warm incubation, the cells were washed three times with PBS, and images were captured with a Harmony 4.8 (PerkinElmer). Meanwhile, the stained BMDMs were quantified by flow cytometry.
For mitochondrial ROS (mtROS) measurement, according to the instruction guidelines, a diluted 5 μM MitoSOX working solution was incubated with treated BMDMs in a cell incubator for 10 min according to the instructional guidelines. The BMDMs were gently washed with warm buffer to remove the working solution. The images were captured using Harmony 4.8 (PerkinElmer). Meanwhile, the stained BMDMs were quantified by flow cytometry.

[6] = myeloid tissue, western blot, DP 40 mg/kg
[7] = serum and peritoneal lavage fluid, DP 2 h pre-treatment, 6 h LPS

COc1c2ccc(-c3ccccc3)oc-2cc(=O)c1C [compound 73, Dracohodin perochlorate]
blood pressure (hypotension) ([1]; BIOPAC System-MP160): could improve hypotension | heart rate ([1]; BIOPAC System-MP160): no significant difference | blood pressure changes ([1]; BP-2010A instrument): not captured significant differences | survival rate ([1]; DP 40 mg/kg given before or after sepsis outbreak): significantly improved | survival (lethal inflammation) ([1]; DP 10, 20, 40 mg/kg 2 h before LPS 20 mg/kg i.p., 72 h): suppressed the lethal inflammation | LPS-induced inflammatory infiltration and fibrosis ([1]; liver, lung, kidney histopathology, DP 10, 20, 40 mg/kg): distinctly alleviated | body weight, body temperature and heart rate ([1]; model group vs drug administration groups): no significant difference | CMPK2 expression in vivo [1, 6]: markedly blocked | activated caspase-1 [1, 6]: prevents the increase | IL-1β production [1, 7]: reduced | TNF-α production [1, 7]: did not affect | lysis of p20 (caspase-1) ([2]; 12 h before or 1 h after LPS): inhibited | secretion of p17 (IL-1β) ([2]; 12 h before or 1 h after LPS): inhibited | production of TNF-α [2]: had no effect | cell viability (BMDMs [3]): no significant change | ASC oligomerization [4]: blocked | mitochondrial membrane potential (BMDMs [5]): significantly reversed | mtROS production (BMDMs [5]): inhibited
